Measured values reported in ChEMBL document CHEMBL5532729, “Nonsymmetrically Substituted 1,1'-Biphenyl-Based Small Molecule Inhibitors of the PD-1/PD-L1 Interaction” (ACS Med Chem Lett, 2024).

Target: Programmed cell death protein 1/Programmed cell death 1 ligand 1 (Homo sapiens, UniProt Q9NZQ7)
Assay: Inhibition of interaction of PD-1 (unknown origin) expressed in Jurkat T cells co-transfected with NFAT response element/PD-L1 (unknown origin) expressed in CHO-K1 cells by reporter bioassay
Assay type: cell-based

Chain of Programmed cell death protein 1/Programmed cell death 1 ligand 1 (Q15116 whole entry): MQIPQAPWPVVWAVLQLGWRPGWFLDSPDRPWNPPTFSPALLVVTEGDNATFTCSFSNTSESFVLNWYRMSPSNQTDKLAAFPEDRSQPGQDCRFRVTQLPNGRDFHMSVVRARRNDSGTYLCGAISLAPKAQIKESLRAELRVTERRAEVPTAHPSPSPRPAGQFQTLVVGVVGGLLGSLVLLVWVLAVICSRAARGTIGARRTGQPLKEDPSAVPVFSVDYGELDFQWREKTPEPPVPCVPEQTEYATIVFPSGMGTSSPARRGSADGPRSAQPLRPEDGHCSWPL
Chain of Programmed cell death protein 1/Programmed cell death 1 ligand 1 (Q9NZQ7 whole entry): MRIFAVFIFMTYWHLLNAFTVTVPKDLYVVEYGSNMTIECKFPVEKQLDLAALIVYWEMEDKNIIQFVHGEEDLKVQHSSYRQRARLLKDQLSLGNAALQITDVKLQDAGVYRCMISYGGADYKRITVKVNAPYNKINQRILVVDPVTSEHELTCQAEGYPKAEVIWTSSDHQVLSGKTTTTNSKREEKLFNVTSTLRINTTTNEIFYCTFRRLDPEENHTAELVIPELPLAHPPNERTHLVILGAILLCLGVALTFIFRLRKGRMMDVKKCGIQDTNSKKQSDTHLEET

Cc1c(NC(=O)c2ccc(CNCCO)cn2)cccc1-c1cccc(NC(=O)c2ccc(CNCCO)cn2)c1C showed an EC50 of 17 nM.
